{"source": "paper PMC10987521", "about": "“An all-in-one tetrazine reagent for cysteine-selective labeling and bioorthogonal activable prodrug construction” (Nature Communications, 2024)", "key": {"[1]": {"format": "physicochemical", "conditions": "for intact (%) under 10 mM GSH: 520 nm HPLC–MS (PyTz UV–Vis)", "protocol": "All tetrazine compounds were diluted to a concentration of 50 μM or 2 μM using PBS (10% DMSO, pH 7.4). A stock solution of GSH (400 mM in PBS) was then added to achieve a final concentration of 10 mM. The mixture was homogenized and incubated at 37 °C for 12 h. The stability of the compounds (including all peptide conjugates and PmTz) was assessed by measuring the decrease in peak area at 520 nm (with the initial peak area at 0 min defined as 100%). This measurement was monitored by HPLC–MS. Similarly, the stability of PyTz was determined by monitoring the decrease in peak intensity at 520 nm using UV–Vis. Statistical analysis was performed on data from three replicates to calculate the mean and standard deviation. […]\nResponse 1: We appreciate your comment. We conducted stability tests on RGD-Dox and RGD-SN-38 in 10 mM GSH at a concentration of 2 μM, which is below the critical micelle concentrations. After incubating at 37 °C for 12 hours, we observed that 95% of RGD-Dox and 85% of RGD-SN-38 remained intact. This stability is slightly less than […]\nthe observed stability is intrinsic to the peptide-drug conjugates, with a slight enhancement due to micelle […]\nconcentrations, after 12 hours of incubation at 37 °C (Figure S46). […]\nintrinsic to the PDCs, with a slight enhancement by micelle formation.\nDetails of these experiments have been included in the Supplementary Information (Page S42), as outlined below:\nRGD-Dox and RGD-SN-38 were diluted to a concentration of 2 μM using PBS (10% DMSO, pH 7.4). A stock solution of GSH (400 mM in PBS) was then added to achieve a final concentration of 10 mM. The mixture was homogenized and incubated at 37 °C for 12 hours. Stability was assessed by measuring the decrease in peak area at 520 nm (with the initial peak area at 0 min defined as 100%). This measurement was monitored by HPLC–MS. Statistical analysis was performed on data from three replicates to calculate the mean and standard deviation."}, "B16F10 melanoma tumor": {"tested_on": "B16F10 melanoma tumor", "experiment": "In vivo anticancer efficacy, subcutaneous B16F10 melanoma tumor model", "parameters": "species or system BALB/c nude mice", "conditions": "four i.v. courses, 3.67 μmol·kg^−1 (TCO-P4 36.7 μmol·kg^−1), n = 5", "protocol": "Tumor-bearing mice were established by subcutaneously injecting a suspension of 5 × 10^5 B16F10 cells per mouse into the front flank of each nude mouse. When tumor volume reached 50−70 mm^3, the animals were randomly divided into five groups (n = 5). The mice were administered different compounds suspended in PBS via the tail vein every 3 days for a total of four times.\nThe mice underwent four treatment courses on day 0, day 3, day 6, and day 9. Tumor size and body weight were measured every day. Tumor volume was calculated via the following formula: V = 1/2 × (minor axis) × (major axis)[2].\nAfter 12 days, the mice were sacrificed and dissected to obtain tumor tissues and main organs, including heart, liver, spleen, lung, and kidney. Subsequently, all tissues were fixed in a 4% paraformaldehyde solution, routinely paraffin-embedded and sectioned, and then stained with hematoxylin and eosin, as well as using TdT-mediated dUTP nick-end labeling (TUNEL) for subsequent pathological analysis. TUNEL-positive cells appeared fluorescent green, representing the apoptosis of tumor cells (nuclei were fluorescent blue, stained with DAPI).\n13. In vivo anticancer efficacy […]\n13.2 Calculation of the tumor growth inhibition values (TGI)\nTumor growth inhibition values (TGI) were calculated using the following formula: TGI (%) = (1 − RTVtreatment/\nRTVcontrol)*100. RTV refers to relative tumor volume, representing the ratio of the volume at the end of treatment to the\nvolume at the beginning of treatment. […]"}, "MDA-MB-231 cells": {"tested_on": "MDA-MB-231 cells", "experiment": "Cytotoxicity (CCK8, 48 h) of drugs, PDCs, activable-Drugs and TCO, MDA-MB-231", "format": "cell-based, Human", "conditions": "200 μM TCO"}, "B16F10 cells": {"tested_on": "B16F10 cells", "experiment": "Cytotoxicity (CCK8, 48 h) of drugs, PDCs, activable-Drugs and TCO, B16F10", "format": "cell-based, Mouse", "conditions": "200 μM TCO"}, "LX2 cells": {"tested_on": "LX2 cells", "experiment": "Cytotoxicity (CCK8, 48 h) of drugs, PDCs, activable-Drugs and TCO, LX2", "format": "cell-based, Human", "conditions": "200 μM TCO"}, "HepG2 cells": {"tested_on": "HepG2 cells", "experiment": "Cytotoxicity (CCK8, 48 h) of drugs, PDCs, activable-Drugs and TCO, HepG2", "conditions": "200 μM TCO"}, "U87 cells": {"tested_on": "U87 cells", "experiment": "Cytotoxicity (CCK8, 48 h) of drugs, PDCs, activable-Drugs and TCO, U87", "format": "cell-based, Human", "conditions": "200 μM TCO"}, "SKOV3 cells": {"tested_on": "SKOV3 cells", "experiment": "Cytotoxicity (CCK8, 48 h) of drugs, PDCs, activable-Drugs and TCO, SKOV3", "format": "cell-based, Human", "conditions": "200 μM TCO"}, "[2]": {"conditions": "1 h, Data 1, 50 μM, PBS pH 7.4, 10% DMSO, 37 °C"}, "[3]": {"conditions": "1 h, Data 2, 50 μM, PBS pH 7.4, 10% DMSO, 37 °C"}, "[4]": {"conditions": "1 h, Data 3, 50 μM, PBS pH 7.4, 10% DMSO, 37 °C"}}, "note": "Entries after “also recorded” stand apart in the source; their conditions may differ. Like-named read-outs stand apart in the source and are kept apart here."}
{"smiles": "c1ccc(-c2nnc(-c3ccccn3)nn2)nc1", "note": "[PyTz, reference compound]", "values": [{"measurement": "intact (%) under 10 mM GSH", "setting": "[1]; 0.5 h, Data 1, 50 μM, PBS pH 7.4, 10% DMSO, 37 °C", "result": 53, "unit": "%"}, {"measurement": "intact (%) under 10 mM GSH", "setting": "[1]; 0.5 h, Data 2, 50 μM, PBS pH 7.4, 10% DMSO, 37 °C", "result": 43.8, "unit": "%"}, {"measurement": "intact (%) under 10 mM GSH", "setting": "[1]; 0.5 h, Data 3, 50 μM, PBS pH 7.4, 10% DMSO, 37 °C", "result": 45, "unit": "%"}, {"measurement": "intact (%) under 10 mM GSH", "setting": "[1]; [2]", "result": 19, "unit": "%"}, {"measurement": "intact (%) under 10 mM GSH", "setting": "[1]; [3]", "result": 19.7, "unit": "%"}, {"measurement": "intact (%) under 10 mM GSH", "setting": "[1]; [4]", "result": 15.4, "unit": "%"}, {"measurement": "intact (%) under 10 mM GSH", "setting": "[1]; 1.5 h, Data 1, 50 μM, PBS pH 7.4, 10% DMSO, 37 °C", "result": 1.3, "unit": "%"}, {"measurement": "intact (%) under 10 mM GSH", "setting": "[1]; 1.5 h, Data 2, 50 μM, PBS pH 7.4, 10% DMSO, 37 °C", "result": 4, "unit": "%"}, {"measurement": "intact (%) under 10 mM GSH", "setting": "[1]; 1.5 h, Data 3, 50 μM, PBS pH 7.4, 10% DMSO, 37 °C", "result": 2.9, "unit": "%"}, {"measurement": "time to degradation with 10 mM GSH", "setting": "[1]; pH 7.4", "result": "≤ 3", "unit": "h"}]}
{"smiles": "Cc1nnc(-c2ncccn2)nn1", "note": "[PmTz, pyrimidine tetrazine, reference compound]", "values": [{"measurement": "intact (%) under 10 mM GSH", "setting": "[1]; [2]", "result": 86.4895, "unit": "%"}, {"measurement": "intact (%) under 10 mM GSH", "setting": "[1]; [3]", "result": 82.9483, "unit": "%"}, {"measurement": "intact (%) under 10 mM GSH", "setting": "[1]; [4]", "result": 87.2017, "unit": "%"}, {"measurement": "intact (%) under 10 mM GSH", "setting": "[1]; 3 h, Data 1, 50 μM, PBS pH 7.4, 10% DMSO, 37 °C", "result": 75.526, "unit": "%"}, {"measurement": "intact (%) under 10 mM GSH", "setting": "[1]; 3 h, Data 2, 50 μM, PBS pH 7.4, 10% DMSO, 37 °C", "result": 72.3872, "unit": "%"}, {"measurement": "intact (%) under 10 mM GSH", "setting": "[1]; 3 h, Data 3, 50 μM, PBS pH 7.4, 10% DMSO, 37 °C", "result": 74.6204, "unit": "%"}, {"measurement": "intact (%) under 10 mM GSH", "setting": "[1]; 5 h, Data 1, 50 μM, PBS pH 7.4, 10% DMSO, 37 °C", "result": 63.0897, "unit": "%"}, {"measurement": "intact (%) under 10 mM GSH", "setting": "[1]; 5 h, Data 2, 50 μM, PBS pH 7.4, 10% DMSO, 37 °C", "result": 68.3168, "unit": "%"}, {"measurement": "intact (%) under 10 mM GSH", "setting": "[1]; 5 h, Data 3, 50 μM, PBS pH 7.4, 10% DMSO, 37 °C", "result": 70.9327, "unit": "%"}, {"measurement": "intact (%) under 10 mM GSH", "setting": "[1]; 8 h, Data 1, 50 μM, PBS pH 7.4, 10% DMSO, 37 °C", "result": 50.7674, "unit": "%"}, {"measurement": "intact (%) under 10 mM GSH", "setting": "[1]; 8 h, Data 2, 50 μM, PBS pH 7.4, 10% DMSO, 37 °C", "result": 52.9065, "unit": "%"}, {"measurement": "intact (%) under 10 mM GSH", "setting": "[1]; 8 h, Data 3, 50 μM, PBS pH 7.4, 10% DMSO, 37 °C", "result": 52.3167, "unit": "%"}, {"measurement": "remained intact with 10 mM GSH", "setting": "[1]; 12 h, 37 °C, 50 μM, PBS pH 7.4, 10% DMSO, HPLC–MS peak area 520 nm, mean of n = 3", "result": 38, "unit": "%"}, {"measurement": "intact (%) under 10 mM GSH", "setting": "[1]; 12 h, Data 1, 50 μM, PBS pH 7.4, 10% DMSO, 37 °C", "result": 38.6932, "unit": "%"}, {"measurement": "intact (%) under 10 mM GSH", "setting": "[1]; 12 h, Data 2, 50 μM, PBS pH 7.4, 10% DMSO, 37 °C", "result": 39.3861, "unit": "%"}, {"measurement": "intact (%) under 10 mM GSH", "setting": "[1]; 12 h, Data 3, 50 μM, PBS pH 7.4, 10% DMSO, 37 °C", "result": 35.5445, "unit": "%"}]}
{"smiles": "COCCOCCOCCOCCC(=O)NCCC1(O)CC/C=C/CCC1", "note": "(racemic) [TCO-P4]", "values": [{"measurement": "tumor growth / inhibition in words", "setting": "B16F10 melanoma tumor", "result": "did not exhibit significant tumor inhibition; also recorded: rapid tumor growth"}]}
{"smiles": "C1=C/CCCCCC/1", "note": "[TCO, trans-cyclooctene]", "values": [{"measurement": "MDA-MB-231 (Cell viability%)", "setting": "MDA-MB-231 cells; Data 1", "result": 96.0832, "unit": "%"}, {"measurement": "MDA-MB-231 (Cell viability%)", "setting": "MDA-MB-231 cells; Data 2", "result": 97.4309, "unit": "%"}, {"measurement": "MDA-MB-231 (Cell viability%)", "setting": "MDA-MB-231 cells; Data 3", "result": 97.8186, "unit": "%"}, {"measurement": "B16F10 (Cell viability%)", "setting": "B16F10 cells; Data 1", "result": 97.5688, "unit": "%"}, {"measurement": "B16F10 (Cell viability%)", "setting": "B16F10 cells; Data 2", "result": 97.508, "unit": "%"}, {"measurement": "B16F10 (Cell viability%)", "setting": "B16F10 cells; Data 3", "result": 97.9504, "unit": "%"}, {"measurement": "LX2 (Cell viability%)", "setting": "LX2 cells; Data 1", "result": 99.7395, "unit": "%"}, {"measurement": "LX2 (Cell viability%)", "setting": "LX2 cells; Data 2", "result": 98.5462, "unit": "%"}, {"measurement": "LX2 (Cell viability%)", "setting": "LX2 cells; Data 3", "result": 97.8594, "unit": "%"}, {"measurement": "HepG2 (Cell viability%)", "setting": "HepG2 cells; Data 1", "result": 94.3888, "unit": "%"}, {"measurement": "HepG2 (Cell viability%)", "setting": "HepG2 cells; Data 2", "result": 93.5935, "unit": "%"}, {"measurement": "HepG2 (Cell viability%)", "setting": "HepG2 cells; Data 3", "result": 92.7384, "unit": "%"}, {"measurement": "U87 (Cell viability%)", "setting": "U87 cells; Data 1", "result": 96.2952, "unit": "%"}, {"measurement": "U87 (Cell viability%)", "setting": "U87 cells; Data 2", "result": 96.092, "unit": "%"}, {"measurement": "U87 (Cell viability%)", "setting": "U87 cells; Data 3", "result": 96.4775, "unit": "%"}, {"measurement": "SKOV3 (Cell viability%)", "setting": "SKOV3 cells; Data 1", "result": 93.7367, "unit": "%"}, {"measurement": "SKOV3 (Cell viability%)", "setting": "SKOV3 cells; Data 2", "result": 92.4982, "unit": "%"}, {"measurement": "SKOV3 (Cell viability%)", "setting": "SKOV3 cells; Data 3", "result": 93.3583, "unit": "%"}]}
